Source: patent US6169083A, “Preventives/remedies for stomatitis” (Zeria Pharmaceutical Co., Ltd., priority 1996, dated 2001)

Legend:
rats = assay: Acute toxicity (oral administration to rats); type: in vivo
Method: (2) The LD50 value of the sodium alginate was 5,000 mg/kg as determined by oral administration to rats.

[1] = Clinical examples: treatment of stomatitis in cancer patients subjected to chemotherapy and/or radiotherapy; type: in vivo, patient
Text: Examples (Clinical Examples):
The frequency indicated in each example indicates a symptomatic process and was judged on the basis of the side effect standard by the Japanese Cancer Association. The frequency and symptom thereof are as follows, and a higher frequency indicates a severer symptom. […]

## sodium alginate [reference compound]
rats
  LD50: 5,000 mg/kg

## NCCC(=O)[N-][C@@H](Cc1c[nH]cn1)C(=O)[O-].[Zn+2] [crystalline L-carnosine zinc salt, L-carnosine zinc salt]
[1]; Example 1, suspension 150 mg/100 ml, 5 ml, 5 or 6 times a day, 8 days
  clinical outcome of stomatitis: the erosion and ulcer arisen on the intraoral mucosa were completely healed
[1]; Example 2, suspension 450 mg/100 ml, 5 ml, 2 to 4 times a day 6 days, then 3 days, swab additional 2 days
  clinical outcome of stomatitis: the ulcer arisen on the intraoral mucosa and angulus oris was completely healed, and the patient became able to ingest a solid diet
[1]; Example 3, suspension 300 mg/100 ml, 5 ml, twice a day, 10 days
  clinical outcome of stomatitis: the ulcer arisen on the intraoral mucosa was completely healed, and the patient became able to ingest a solid diet
[1]; Example 12, ointment 150 mg in plastibase 100 g, swab, 3 to 5 times a day, 9 days
  clinical outcome of stomatitis: the ulcer in the oral cavity was completely healed, and the patient became able to ingest a solid diet
rats
  LD50: 8,441 mg/kg
